In patent US10864197B2, “Biphenyl sulfonamide compounds for the treatment of kidney diseases or disorders” (Retrophin, Inc., priority 2016, dated 2020):

What was measured:
[1] = DUET trial: eGFR and serum markers; type: in vivo, human; conditions: double-blind period
Text: (§1) DUET trial is a phase 2, double-blind, randomized, active-control, dose-escalation study (NCT01613118) that evaluates the efficacy and safety of sparsentan as a treatment for primary focal segmental glomerulosclerosis (FSGS), a rare disorder characterized by massive proteinuria and progressive loss of kidney function. Patients (ranging in age from 8 years to 75 years) with biopsy-proven primary FSGS (or documentation of a genetic mutation in a podocyte protein associated with the disease) having baseline urine protein to creatinine (“UP/C”) ratios greater than 1 g/g and estimated glomerular filtration rates greater than 30 ml/min were eligible for the study. The inclusion criteria also included a mean seated blood pressure >[…] and <145/96 mmHg for patients aged 18 years or older, or, for patients aged <18 years of age, a mean seated blood pressure of >90/60 mmHg and <95th percentile for age, gender, and height. The inclusion criteria included an allowance for a stable dose of immunosuppressive medication for ≥1 month. Exclusion criteria included secondary FSGS; significant medical conditions related to cardiac, hepatic, or immune function; body mass index >[…] for adults or in the 99th percentile plus 5 for pediatric patients; hematocrit <27% or hemoglobin <[…]; serum potassium >5.5 mEq/L; and women who were pregnant, breastfeeding, or of child-bearing potential who were unwilling to use two methods of contraception.
(§2) Patients who signed consent and met all inclusion and exclusion criteria during the screening phase underwent a 2-week angiotensin receptor blocker (ARB) and angiotensin converting enzyme (ACE) inhibitor washout period before being randomly assigned to one of the three escalating dose cohorts receiving sparsentan (200 mg/day; 400 mg/day; and 800 mg/day) or a fixed maximal dose of active control (the ARB irbesartan, at 300 mg/day) in a 3:1 ratio within each cohort. The primary endpoint was the change in UP/C ratio (determined as a measure of urinary protein excretion) from baseline. The proportion of patients achieving UP/C ratio ≤1.5 g/g with >40% reduction in UP/C ratio at Week 8, a modified responder analysis, was evaluated as secondary endpoint.

[2] = DUET trial: treatment emergent adverse events and edema severity; type: in vivo, human; conditions: for Patients with Edema, Severity Grade 0 / Patients with Edema, Severity Grade 1+ to 2+ / Patients with Edema, Severity Grade 3+ to 4+ / Percent of patients having treatment emergent adverse effects: Any / Percent of patients having treatment emergent adverse effects: Drug-related / Percent of patients having treatment emergent adverse effects: Leading to dose change or interruption / Percent of patients having treatment emergent adverse effects: Leading to drug discontinuation / Percent of patients having treatment emergent adverse effects: Leading to study withdrawal / Percent of patients having treatment emergent adverse effects: Serious / Percent of patients with Cough / Percent of patients with Diarrhea / Percent of patients with Dizziness / Percent of patients with Edema/edema peripheral / Percent of patients with Fatigue / Percent of patients with Headache / Percent of patients with Hypotension/orthostatic hypotension / Percent of patients with Muscle spasms / Percent of patients with Nasal congestion / Percent of patients with Nausea / Percent of patients with Upper abdominal pain / Percent of patients with Upper respiratory tract infection / Percent of patients with Vomiting: human, in vivo; for Percent of patients having treatment emergent adverse effects: Death: irbesartan n=36, sparsentan all doses n=73
Text: as §1, §2
The incidences of specific treatment emergent adverse events for which the incidence was greater than 5% across all patients are shown in Table 7. Symptoms such as headache, dizziness, and edema may be associated with hypotension and some of those symptoms were more frequent in patients treated with sparsentan relative to those patients treated with irbesartan. However, there was no significant different between irbesartan-treated patients and sparsentan-treated patients in the worsening of existing edema (Table 8).

Compound	change in N-terminal pro-B-type natriuretic peptide [1]	change in albumin [1]	change in eGFR [1]	change in serum potassium [1]	Patients with Edema, Severity Grade 0 [2]	Patients with Edema, Severity Grade 1+ to 2+ [2]	Patients with Edema, Severity Grade 3+ to 4+ [2]	Patients with Edema, Severity Grade 0 ([2]; 8 weeks)	Patients with Edema, Severity Grade 1+ to 2+ ([2]; 8 weeks)	Patients with Edema, Severity Grade 3+ to 4+ ([2]; 8 weeks)	Percent of patients having treatment emergent adverse effects: Any ([2]; 8 weeks)	Percent of patients having treatment emergent adverse effects: Drug-related ([2]; 8 weeks)	Percent of patients having treatment emergent adverse effects: Leading to dose change or interruption ([2]; 8 weeks)	Percent of patients having treatment emergent adverse effects: Leading to drug discontinuation ([2]; 8 weeks)	Percent of patients having treatment emergent adverse effects: Leading to study withdrawal ([2]; 8 weeks)	Percent of patients having treatment emergent adverse effects: Serious ([2]; 8 weeks)	Percent of patients with Cough ([2]; 8 weeks)	Percent of patients with Diarrhea ([2]; 8 weeks)	Percent of patients with Dizziness ([2]; 8 weeks)	Percent of patients with Edema/edema peripheral ([2]; 8 weeks)	also measured
CCCCC1=NC2(CCCC2)C(=O)N1Cc1ccc(-c2ccccc2-c2nnn[nH]2)cc1 [Irbesartan, irbesartan, reference compound]	no significant change or difference	no significant change or difference	no significant change or difference	no significant change or difference	76%	21%	3%	86%	14%	0%	72.2%	36.1%	8.3%	2.8%	2.8%	2.8%	5.6%	2.8%	11.1%	2.8%	Percent of patients with Fatigue ([2]; 8 weeks): 11.1%; Percent of patients with Headache ([2]; 8 weeks): 19.4%; Percent of patients with Hypotension/orthostatic hypotension ([2]; 8 weeks): 8.3%; Percent of patients with Muscle spasms ([2]; 8 weeks): 5.6%; Percent of patients with Nasal congestion ([2]; 8 weeks): 11.1%; Percent of patients with Nausea ([2]; 8 weeks): 8.3%; Percent of patients with Upper abdominal pain ([2]; 8 weeks): 5.6%; Percent of patients with Upper respiratory tract infection ([2]; 8 weeks): 5.6%; Percent of patients with Vomiting ([2]; 8 weeks): 2.8%; Percent of patients having treatment emergent adverse effects: Death [2]: 0%
CCCCC1=NC2(CCCC2)C(=O)N1Cc1ccc(-c2ccccc2S(=O)(=O)Nc2noc(C)c2C)c(COCC)c1 [Sparsentan, 4′-((2-butyl-4-oxo-1,3-diazaspiro[4.4]non-1-en-3-yl)methyl)-N-(4,5-dimethylisoxazol-3-yl)-2′-(ethoxymethyl)-[1,1′-biphenyl]-2-sulfonamide]	no significant change or difference	no significant change or difference	no significant change or difference	no significant change or difference	66%	32%	2%	65%	30%	5%	76.7%	43.8%	23.3%	4.1%	2.7%	2.7%	4.1%	8.2%	13.7%	12.3%	Percent of patients with Fatigue ([2]; 8 weeks): 4.1%; Percent of patients with Headache ([2]; 8 weeks): 19.2%; Percent of patients with Hypotension/orthostatic hypotension ([2]; 8 weeks): 16.4%; Percent of patients with Muscle spasms ([2]; 8 weeks): 0%; Percent of patients with Nasal congestion ([2]; 8 weeks): 2.7%; Percent of patients with Nausea ([2]; 8 weeks): 12.3%; Percent of patients with Upper abdominal pain ([2]; 8 weeks): 5.5%; Percent of patients with Upper respiratory tract infection ([2]; 8 weeks): 2.7%; Percent of patients with Vomiting ([2]; 8 weeks): 8.2%; Percent of patients having treatment emergent adverse effects: Death [2]: 0%
